In ChEMBL document CHEMBL1201862, “PubChem BioAssay data set” (2004):
One block for each compound: values may come before it. The source made the active and inactive calls.

Tests used:
[1] = target: T1, Tyrosine-protein phosphatase non-receptor type 7 (Homo sapiens, UniProt P35236); assay type: functional
T1 sequence (P35236 whole entry): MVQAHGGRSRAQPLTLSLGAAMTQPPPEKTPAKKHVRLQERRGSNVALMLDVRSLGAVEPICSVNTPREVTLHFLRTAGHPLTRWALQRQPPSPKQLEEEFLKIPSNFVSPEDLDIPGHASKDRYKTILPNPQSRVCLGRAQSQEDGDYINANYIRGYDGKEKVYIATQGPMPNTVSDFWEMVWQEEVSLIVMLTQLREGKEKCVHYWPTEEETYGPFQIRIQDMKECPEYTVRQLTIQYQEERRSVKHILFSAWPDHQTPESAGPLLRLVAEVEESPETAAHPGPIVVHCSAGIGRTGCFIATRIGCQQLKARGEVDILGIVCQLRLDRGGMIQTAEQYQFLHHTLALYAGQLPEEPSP

[2] = target: T2, RNA-binding protein pos-1 (Caenorhabditis elegans, UniProt G5EF15); assay: inhibitors of POS-1/mex-3 RNA binding, dose response, biochemical, fluorescence polarization (AID 1964);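 further: purified POS-1 fused to maltose binding protein made in E. coli; potency of compounds blocking POS-1 binding to fluorescent RNA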
T2 sequence (G5EF15 whole entry): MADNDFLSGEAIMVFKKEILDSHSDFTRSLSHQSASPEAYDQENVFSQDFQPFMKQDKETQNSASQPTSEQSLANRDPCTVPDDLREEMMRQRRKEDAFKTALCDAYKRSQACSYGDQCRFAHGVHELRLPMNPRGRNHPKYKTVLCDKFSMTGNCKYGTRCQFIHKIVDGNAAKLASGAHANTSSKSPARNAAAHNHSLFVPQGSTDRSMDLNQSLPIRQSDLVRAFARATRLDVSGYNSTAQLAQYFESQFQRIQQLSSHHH

Bcl-2-like protein 10 = target: T3, Bcl-2-like protein 10 (Homo sapiens, UniProt Q9HD36); assay: displacers of TR3 peptide from Bcl-B, primary screen, selectivity assay for Bfl-1 inhibitor project, biochemical, fluorescence polarization, FITC-TR3 peptide (AID 748);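 further: fluorescence polarization from a fluorescein-labelled TR3 peptide binding purified Bcl-B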
T3 sequence (Q9HD36 whole entry): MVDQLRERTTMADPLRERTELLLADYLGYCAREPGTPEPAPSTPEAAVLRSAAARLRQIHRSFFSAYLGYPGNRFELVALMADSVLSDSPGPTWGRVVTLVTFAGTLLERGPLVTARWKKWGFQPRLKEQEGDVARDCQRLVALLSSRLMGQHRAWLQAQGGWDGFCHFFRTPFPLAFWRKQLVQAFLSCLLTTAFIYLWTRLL

[3] = target: Glyceraldehyde-3-phosphate dehydrogenase (Homo sapiens, UniProt P04406)
[4] = target: T4, Zinc finger protein mex-5 (Caenorhabditis elegans, UniProt Q9XUB2); assay: MEX-5/TCR-2 RNA interaction inhibitors, dose response, biochemical, C. elegans, fluorescence polarization (AID 1960)
T4 sequence (Q9XUB2 whole entry): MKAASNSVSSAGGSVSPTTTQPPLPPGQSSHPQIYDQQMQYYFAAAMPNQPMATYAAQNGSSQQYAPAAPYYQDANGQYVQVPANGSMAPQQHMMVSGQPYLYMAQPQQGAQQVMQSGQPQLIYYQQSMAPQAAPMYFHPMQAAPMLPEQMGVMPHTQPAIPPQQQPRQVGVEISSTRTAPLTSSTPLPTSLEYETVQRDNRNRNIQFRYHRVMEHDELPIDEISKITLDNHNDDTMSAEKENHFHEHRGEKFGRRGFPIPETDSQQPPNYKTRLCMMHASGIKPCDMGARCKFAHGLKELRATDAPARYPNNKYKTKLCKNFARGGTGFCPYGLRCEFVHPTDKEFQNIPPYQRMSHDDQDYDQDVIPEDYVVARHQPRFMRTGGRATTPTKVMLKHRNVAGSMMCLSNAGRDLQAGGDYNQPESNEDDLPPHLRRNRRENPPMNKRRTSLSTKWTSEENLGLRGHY

[5] = target: Heat shock cognate 71 kDa protein (Homo sapiens, UniProt P11142); assay: In Vitro Hsc70 Dose Response Fluorescence Polarization Assay. [Related pubchem assays: 1072 ]
Large T antigen = Large T antigen (Simian virus 40, UniProt P03070); assay type: functional, Betapolyomavirus macacae;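 further: Confirmatory-stage PubChem screen for compounds that inhibit SV40 T antigen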
[6] = target: Heat shock 70 kDa protein 1A (Homo sapiens, UniProt P0DMV8); assay: Hsp70 inhibitors, SAR follow-up, biochemical, fluorescence polarization (AID 1072)
Chain of Heat shock 70 kDa protein 1A (P0DMV8 whole entry): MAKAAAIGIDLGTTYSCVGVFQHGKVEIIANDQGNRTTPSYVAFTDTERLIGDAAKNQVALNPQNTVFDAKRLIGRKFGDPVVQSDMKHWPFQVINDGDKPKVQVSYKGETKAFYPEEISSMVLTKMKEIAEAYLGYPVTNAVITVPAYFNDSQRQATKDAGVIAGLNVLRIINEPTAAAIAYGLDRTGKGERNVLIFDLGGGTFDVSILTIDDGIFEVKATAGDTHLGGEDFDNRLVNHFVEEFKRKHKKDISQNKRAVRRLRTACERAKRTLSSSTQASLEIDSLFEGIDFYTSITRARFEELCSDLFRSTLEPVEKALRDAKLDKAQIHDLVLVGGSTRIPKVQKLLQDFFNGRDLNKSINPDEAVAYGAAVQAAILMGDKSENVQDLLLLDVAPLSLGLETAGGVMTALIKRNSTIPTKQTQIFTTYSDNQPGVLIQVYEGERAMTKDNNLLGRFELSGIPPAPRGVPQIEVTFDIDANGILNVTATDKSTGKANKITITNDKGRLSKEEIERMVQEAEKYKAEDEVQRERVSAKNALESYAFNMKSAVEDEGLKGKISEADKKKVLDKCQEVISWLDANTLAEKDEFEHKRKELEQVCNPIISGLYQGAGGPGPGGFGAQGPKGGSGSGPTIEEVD

[7] = target: T5, Dual specificity protein phosphatase 6 (Rattus norvegicus, UniProt Q64346)
T5 sequence (Q64346 whole entry): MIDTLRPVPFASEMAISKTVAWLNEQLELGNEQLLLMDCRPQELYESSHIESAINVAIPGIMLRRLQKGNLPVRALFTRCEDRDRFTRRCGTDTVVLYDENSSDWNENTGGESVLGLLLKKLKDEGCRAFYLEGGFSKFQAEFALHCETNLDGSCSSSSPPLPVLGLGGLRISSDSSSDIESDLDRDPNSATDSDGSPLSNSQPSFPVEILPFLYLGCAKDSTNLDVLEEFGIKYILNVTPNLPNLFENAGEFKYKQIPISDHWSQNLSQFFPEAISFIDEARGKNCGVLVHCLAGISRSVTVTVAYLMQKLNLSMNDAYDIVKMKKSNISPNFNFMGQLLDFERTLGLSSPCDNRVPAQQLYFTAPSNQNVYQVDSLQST

[8] = target: T5, Dual specificity protein phosphatase 6; assay: MKP-3 phosphatase inhibitors, primary screen, biochemical, rat enzyme, in vitro (AID 425)
[9] = target: Induced myeloid leukemia cell differentiation protein Mcl-1 (Homo sapiens, UniProt Q07820); assay type: functional
Chain of Induced myeloid leukemia cell differentiation protein Mcl-1 (Q07820 whole entry): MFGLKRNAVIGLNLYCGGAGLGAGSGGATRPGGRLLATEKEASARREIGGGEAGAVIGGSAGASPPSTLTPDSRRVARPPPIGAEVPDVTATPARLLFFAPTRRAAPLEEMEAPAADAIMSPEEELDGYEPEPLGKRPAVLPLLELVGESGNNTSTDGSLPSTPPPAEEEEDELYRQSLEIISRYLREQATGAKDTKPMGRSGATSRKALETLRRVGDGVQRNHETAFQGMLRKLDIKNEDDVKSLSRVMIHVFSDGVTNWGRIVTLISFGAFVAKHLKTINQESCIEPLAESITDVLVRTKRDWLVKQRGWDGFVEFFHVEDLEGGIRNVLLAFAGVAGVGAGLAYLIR

[10] = target: Eukaryotic translation initiation factor 4E (Mus musculus, UniProt P63073); assay: eIF4E–eIF4G protein interaction inhibitors, dose response, biochemical, TR-FRET (AID 855); assay type: functional;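 further: potency for disrupting eIF4E binding to eIF4GI seen as loss of FRET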
Chain of Eukaryotic translation initiation factor 4E (P63073 whole entry): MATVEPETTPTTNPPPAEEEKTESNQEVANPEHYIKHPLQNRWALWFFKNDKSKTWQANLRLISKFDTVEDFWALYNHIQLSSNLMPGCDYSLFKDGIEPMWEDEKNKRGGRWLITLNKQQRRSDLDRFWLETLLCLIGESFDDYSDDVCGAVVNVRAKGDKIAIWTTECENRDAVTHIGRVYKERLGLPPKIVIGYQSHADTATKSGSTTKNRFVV

[11] = target: T5, Dual specificity protein phosphatase 6; assay type: functional
[12] = target: T6, DNA dC->dU-editing enzyme APOBEC-3A (Homo sapiens, UniProt P31941); assay: SAR analysis of small molecule inhibitors of APOBEC3A DNA Deaminase via a fluorescence-based single-stranded DNA deaminase assay - Set 2.; assay type: functional; settings: read-out: IC50_Mean
T6 sequence (P31941 whole entry): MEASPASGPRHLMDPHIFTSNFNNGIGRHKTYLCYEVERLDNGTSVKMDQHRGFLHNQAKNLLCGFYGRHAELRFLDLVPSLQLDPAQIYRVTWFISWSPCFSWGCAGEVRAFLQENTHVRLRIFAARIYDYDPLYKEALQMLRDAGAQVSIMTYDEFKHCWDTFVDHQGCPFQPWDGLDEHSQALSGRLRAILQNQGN

[13] = target: T7, DNA dC->dU-editing enzyme APOBEC-3G (Homo sapiens, UniProt Q9HC16); assay: SAR analysis of small molecule inhibitors of APOBEC3G DNA Deaminase via a fluorescence-based single-stranded DNA deaminase assay - Set 2.; assay type: functional; settings: read-out: IC50_Mean
T7 sequence (Q9HC16 whole entry): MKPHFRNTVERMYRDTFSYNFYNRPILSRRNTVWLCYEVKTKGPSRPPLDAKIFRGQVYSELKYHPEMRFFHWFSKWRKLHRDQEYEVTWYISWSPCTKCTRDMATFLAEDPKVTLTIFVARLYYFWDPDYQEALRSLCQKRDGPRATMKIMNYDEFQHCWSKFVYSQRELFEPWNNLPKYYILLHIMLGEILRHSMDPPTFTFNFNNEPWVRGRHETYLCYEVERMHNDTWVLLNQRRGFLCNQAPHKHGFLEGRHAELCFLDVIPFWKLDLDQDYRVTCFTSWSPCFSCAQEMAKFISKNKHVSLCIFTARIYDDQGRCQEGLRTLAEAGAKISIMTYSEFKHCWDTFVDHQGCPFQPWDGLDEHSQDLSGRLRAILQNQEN

[14] = target: T7, DNA dC->dU-editing enzyme APOBEC-3G; assay: APOBEC3G deaminase inhibitors, SAR follow-up, biochemical, fluorescence, single-stranded DNA substrate (AID 602136); assay type: functional; settings: read-out: IC50_Mean
[15] = target: T6, DNA dC->dU-editing enzyme APOBEC-3A; assay: SAR analysis of small molecule inhibitors of APOBEC3A DNA Deaminase via a fluorescence-based single-stranded DNA deaminase assay.; assay type: functional; settings: read-out: IC50_Mean
[16] = target: Protein disulfide-isomerase (Homo sapiens, UniProt P07237); assay: PDI inhibitors, insulin aggregation turbidity, dose response, biochemical, absorbance, cherry-picked samples (AID 602350); assay type: functional
CHO-K1 = assay: (§1) Counterscreen for antagonists of the orexin 1 receptor (OX1R; HCRTR1): Homogeneous time resolved fluorescence (HTRF)-based cell-based dose response assay to identify antagonists of the parental CHO-K1 cell line. [Related pubchem assays (depositor defined):AID434989, AID435008, AID463079, AID485270, AID492963, AID492964, AID492965, AID493232, AID504699, AID504701]; assay type: functional; settings: Cricetulus griseus
[17] = as §1, with “Fluorescence-based” for “Homogeneous time resolved fluorescence (HTRF)-based”, “cell-based high throughput” for “cell-based”, “CHO” for “CHO-K1”; assay type: functional
[18] = target: T8, Orexin/Hypocretin receptor type 1 (Homo sapiens, UniProt O43613); assay: Homogeneous Time Resolved Fluorescence (HTRF)-based cell-based high throughput dose response assay for antagonists of the orexin 1 receptor (OX1R; HCRTR1). [Related pubchem assays (depositor defined):AID434989, AID435008, AID463079, AID485270, AID492963, AID492964, AID492965, AID493232, AID504717, AID504718]; assay type: functional
T8 sequence (O43613 whole entry): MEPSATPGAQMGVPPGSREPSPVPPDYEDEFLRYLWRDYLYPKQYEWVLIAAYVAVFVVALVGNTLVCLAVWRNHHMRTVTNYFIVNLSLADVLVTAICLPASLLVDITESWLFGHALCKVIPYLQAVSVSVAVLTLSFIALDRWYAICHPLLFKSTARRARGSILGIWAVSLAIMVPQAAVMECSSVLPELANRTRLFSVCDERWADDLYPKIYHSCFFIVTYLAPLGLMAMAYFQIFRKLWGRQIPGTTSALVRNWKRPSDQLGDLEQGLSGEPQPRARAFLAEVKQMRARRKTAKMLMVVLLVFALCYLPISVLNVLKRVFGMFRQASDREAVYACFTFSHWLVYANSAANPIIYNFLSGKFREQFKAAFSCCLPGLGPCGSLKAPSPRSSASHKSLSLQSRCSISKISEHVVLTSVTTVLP

[19] = target: T8, Orexin/Hypocretin receptor type 1; assay: Fluorescence-based cell-based high throughput dose response assay for antagonists of the orexin 1 receptor (OX1R; HCRTR1). [Related pubchem assays (depositor defined):AID434989, AID435008, AID463079, AID485270, AID492963, AID492964, AID492965, AID493232, AID504717, AID504718]; assay type: functional
Orexin receptor type 2 [20] = target: T9, Orexin receptor type 2 (Homo sapiens, UniProt O43614); assay: Counterscreen assay for antagonists of the orexin 1 receptor (OX1R; HCRTR1): Fluorescence-based cell-based dose response assay for antagonists of the orexin 2 receptor (OX2R; HCRTR2), run by assay provider.; assay type: functional
T9 sequence (O43614 whole entry): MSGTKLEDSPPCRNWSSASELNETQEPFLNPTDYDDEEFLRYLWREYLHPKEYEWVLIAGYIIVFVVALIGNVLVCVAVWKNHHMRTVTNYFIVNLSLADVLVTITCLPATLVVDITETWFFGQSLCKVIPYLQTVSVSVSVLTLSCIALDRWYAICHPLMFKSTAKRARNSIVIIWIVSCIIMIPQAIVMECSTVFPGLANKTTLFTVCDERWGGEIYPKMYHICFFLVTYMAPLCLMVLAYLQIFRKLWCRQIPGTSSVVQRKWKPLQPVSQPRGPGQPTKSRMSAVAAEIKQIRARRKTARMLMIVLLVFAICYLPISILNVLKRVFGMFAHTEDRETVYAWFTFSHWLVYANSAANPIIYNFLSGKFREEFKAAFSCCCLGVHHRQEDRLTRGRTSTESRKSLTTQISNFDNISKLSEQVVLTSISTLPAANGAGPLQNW

Orexin receptor type 2 [21] = target: T9, Orexin receptor type 2; assay: Counterscreen assay for antagonists of the orexin 1 receptor (OX1R; HCRTR1): Homogeneous Time Resolved Fluorescence (HTRF)-based cell-based dose response assay for antagonists of the orexin 2 receptor (OX2R; HCRTR2), run by assay provider.; assay type: functional
[22] = target: Serine/threonine-protein kinase pim-1 (Homo sapiens, UniProt P11309); assay type: functional
Chain of Serine/threonine-protein kinase pim-1 (P11309 whole entry): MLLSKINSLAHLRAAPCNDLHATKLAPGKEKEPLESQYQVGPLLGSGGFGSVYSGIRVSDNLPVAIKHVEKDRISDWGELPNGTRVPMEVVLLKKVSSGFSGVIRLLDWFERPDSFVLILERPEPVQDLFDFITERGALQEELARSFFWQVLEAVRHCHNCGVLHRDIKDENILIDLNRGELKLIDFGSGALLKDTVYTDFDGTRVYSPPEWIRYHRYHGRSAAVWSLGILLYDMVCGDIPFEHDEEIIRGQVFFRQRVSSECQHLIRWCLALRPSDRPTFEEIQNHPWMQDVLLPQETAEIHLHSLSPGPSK

[23] = target: Cell division cycle 7-related protein kinase (Homo sapiens, UniProt O00311); assay type: functional;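 further: value obtained from a kinome-wide kinase panel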
Chain of Cell division cycle 7-related protein kinase (O00311 whole entry): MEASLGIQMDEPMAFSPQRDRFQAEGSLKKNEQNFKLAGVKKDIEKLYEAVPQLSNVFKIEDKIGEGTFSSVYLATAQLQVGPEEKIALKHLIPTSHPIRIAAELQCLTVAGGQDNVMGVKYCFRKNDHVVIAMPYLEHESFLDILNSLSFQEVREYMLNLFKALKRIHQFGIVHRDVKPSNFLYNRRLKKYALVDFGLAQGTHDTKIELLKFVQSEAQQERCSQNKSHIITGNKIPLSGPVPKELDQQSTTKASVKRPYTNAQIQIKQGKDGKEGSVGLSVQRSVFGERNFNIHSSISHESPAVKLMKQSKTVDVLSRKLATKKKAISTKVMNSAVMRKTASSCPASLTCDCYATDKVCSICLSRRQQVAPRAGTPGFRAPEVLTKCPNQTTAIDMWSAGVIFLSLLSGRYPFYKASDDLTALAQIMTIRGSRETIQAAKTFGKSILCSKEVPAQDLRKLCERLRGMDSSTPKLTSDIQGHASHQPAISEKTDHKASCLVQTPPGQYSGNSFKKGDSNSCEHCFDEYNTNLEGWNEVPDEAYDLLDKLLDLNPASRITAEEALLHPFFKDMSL

[24] = target: Homeodomain-interacting protein kinase 2 (Homo sapiens, UniProt Q9H2X6); assay type: functional;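 further: measured within a kinome-wide kinase profiling panel, HIPK2 being one panel member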
Chain of Homeodomain-interacting protein kinase 2 (Q9H2X6 whole entry): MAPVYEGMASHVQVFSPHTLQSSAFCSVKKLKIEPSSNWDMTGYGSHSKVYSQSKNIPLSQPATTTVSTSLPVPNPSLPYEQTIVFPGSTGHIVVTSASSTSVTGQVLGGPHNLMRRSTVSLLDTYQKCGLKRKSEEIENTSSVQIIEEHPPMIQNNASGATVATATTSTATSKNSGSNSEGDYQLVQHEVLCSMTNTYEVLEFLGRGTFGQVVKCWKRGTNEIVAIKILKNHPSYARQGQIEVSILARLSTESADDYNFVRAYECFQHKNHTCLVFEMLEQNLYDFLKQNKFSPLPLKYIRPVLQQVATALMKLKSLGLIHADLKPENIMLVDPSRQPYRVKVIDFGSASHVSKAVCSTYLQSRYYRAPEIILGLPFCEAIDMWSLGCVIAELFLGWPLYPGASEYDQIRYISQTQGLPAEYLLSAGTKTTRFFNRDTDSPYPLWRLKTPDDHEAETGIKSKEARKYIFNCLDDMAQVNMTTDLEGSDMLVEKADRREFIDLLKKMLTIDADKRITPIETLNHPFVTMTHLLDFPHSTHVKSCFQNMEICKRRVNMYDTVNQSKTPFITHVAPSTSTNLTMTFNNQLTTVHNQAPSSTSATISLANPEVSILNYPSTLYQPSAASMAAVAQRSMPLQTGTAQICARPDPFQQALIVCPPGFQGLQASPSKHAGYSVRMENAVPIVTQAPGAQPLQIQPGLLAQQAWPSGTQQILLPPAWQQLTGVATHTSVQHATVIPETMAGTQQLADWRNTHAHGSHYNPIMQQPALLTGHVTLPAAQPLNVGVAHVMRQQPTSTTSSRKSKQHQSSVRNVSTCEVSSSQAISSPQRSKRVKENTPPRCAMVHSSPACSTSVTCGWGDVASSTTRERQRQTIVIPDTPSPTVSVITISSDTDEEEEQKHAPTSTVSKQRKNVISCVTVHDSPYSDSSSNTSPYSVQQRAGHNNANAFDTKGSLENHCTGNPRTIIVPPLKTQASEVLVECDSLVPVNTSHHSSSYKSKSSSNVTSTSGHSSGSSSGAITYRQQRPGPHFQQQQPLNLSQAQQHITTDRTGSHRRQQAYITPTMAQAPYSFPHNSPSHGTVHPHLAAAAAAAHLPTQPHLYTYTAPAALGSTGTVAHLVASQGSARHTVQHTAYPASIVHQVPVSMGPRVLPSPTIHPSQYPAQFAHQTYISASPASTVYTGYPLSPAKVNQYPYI

[25] = target: Interleukin-1 receptor-associated kinase 4 (Homo sapiens, UniProt Q9NWZ3); assay type: functional
Chain of Interleukin-1 receptor-associated kinase 4 (Q9NWZ3 whole entry): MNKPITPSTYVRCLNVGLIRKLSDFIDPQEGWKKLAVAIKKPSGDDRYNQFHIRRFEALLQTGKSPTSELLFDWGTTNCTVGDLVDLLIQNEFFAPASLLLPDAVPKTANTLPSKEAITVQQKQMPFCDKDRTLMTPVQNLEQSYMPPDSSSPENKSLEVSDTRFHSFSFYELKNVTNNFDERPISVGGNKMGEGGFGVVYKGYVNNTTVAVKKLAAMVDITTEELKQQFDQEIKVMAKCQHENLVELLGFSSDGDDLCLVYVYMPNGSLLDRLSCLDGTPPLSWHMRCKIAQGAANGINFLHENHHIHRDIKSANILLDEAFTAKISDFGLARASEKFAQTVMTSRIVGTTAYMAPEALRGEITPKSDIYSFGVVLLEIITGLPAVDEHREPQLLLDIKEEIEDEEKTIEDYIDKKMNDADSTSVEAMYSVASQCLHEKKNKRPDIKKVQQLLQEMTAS

[26] = target: cAMP-dependent protein kinase catalytic subunit alpha (Homo sapiens, UniProt P17612); assay type: functional
[27] = target: Mitogen-activated protein kinase kinase kinase kinase 4 (Homo sapiens, UniProt O95819); assay type: functional

Compound: Cc1ccc2c(c1C)NC(C(=O)O)C1CC=CC21 (stereo not given)
IC50 [1]: 5.43 µM (active) | EC50 [2]: 37.4 µM (active) | IC50 (Bcl-2-like protein 10): 1.89 µM (active) | IC50 [3]: 80.8 µM (active) | EC50 [4]: 21.7 µM (active) | IC50 [5]: 21.9 µM (active) | IC50 (Large T antigen): 91.4 µM (active) | IC50 [6]: 7.18 µM (active) | IC50 [7]: 6.2 µM (active) | IC50 [8]: > 10 µM (not active) | IC50 [9]: 3.17 µM (active) | IC50 [10]: 8.68 µM (active) | IC50 [11]: 5.96 µM (active) | IC50 [12]: 1.7 µM (active) | IC50 [13]: 0.858 µM (active) | IC50 [14]: 30.3 µM (inactive) | IC50 [15]: 6.55 µM (active)

AC50 [16]: 6.5 µM (active)
Compound: O=C1NC[C@H](Cc2ccccc2)N(C[C@H]2CCCN2C[C@H](Cc2ccccc2)N2C[C@H](Cc3ccc(O)cc3)N(CCc3ccccc3)C(=O)C2=O)C1=O

Compound: O=C(O)CCn1c(SCCOc2ccccc2)nc2ccccc21
IC50 (CHO-K1): > 66.2 µM (inactive) | IC50 [17]: > 49.7 µM (inactive) | IC50 [18]: 0.687 µM (active) | IC50 [19]: 23 µM (inactive) | IC50 (Orexin receptor type 2 [20]): > 88.8 µM (inactive) | IC50 (Orexin receptor type 2 [21]): > 50 µM (inactive)

Ki [22]: 0.398 µM (active) | Ki [23]: 0.0501 µM (active) | Ki [24]: 0.0158 µM (active) | Ki [25]: 3.98 µM (active) | Ki [26]: > 7.94 µM (inactive) | Ki [27]: 0.1 µM (active)
Compound: c1ccc(Cn2cc(-c3ccc4[nH]nc(-c5cn(Cc6ccccc6)nn5)c4c3)nn2)cc1
